In patent US4845233A, “Imidazolin-2-ones” (IPRX, Inc., priority 1987, dated 1989):

Experiments:
[1] = in vitro transdermal penetration of indomethacin from petrolatum ointment through shed snake skin, vertical diffusion cell; type: in vitro ADME, Elaphe obsoleta (black rat snake); settings: for Relative Penetration: 5% enhancer in ointment, indomethacin, slope relative to Azone = 100%
Method: Ointments were prepared by mixing 1% indomethacin, 5% dermal penetration enhancer and 94% petrolatum at 55°-60° C. to give a homogeneous dispersion of indomethacin. In the cases where the enhancers are liquid the indomethacin and the enhancer were first mixed well and then followed by the incorporation of the petrolatum. The mixture was melted at 55°-60° C. and stirred until a homogeneous ointment was obtained. For low melting enhancers, the enhancer and the indomethacin were melted together and mixed in a water-bath followed by the incorporation of petrolatum. For high melting enhancers, it was necessary to mix the components in an agate mortar.
A whole shed snake skin from the molt of adult Elaphe obsoleta (black rat snake) was obtained from the Animal Care Unit of the University of Kansas. Only the dorsal side of the shed snake skin was used for in vitro penetration studies. The head and tail sections of the snake skin was removed and the remainder of the skin was cut randomly into sections of approximately 2 inches by 2 inches. Each piece of snake skin was hydrated overnight by first soaking the skin in water (about 5 to 10 min) until it could be stretched and then it was placed on a plastic pan which held some water. The pan was floated on a water-bath of 32° C. overnight.
Approximately 30 mg of ointment as prepared as described in Example 23 was smeared evenly on an area of the 2"×2" snake skin. The ointment was smeared into an essentially circular area approximately 1.77 cm^2 and having a diameter of approximately 15 mm. The snake skin was then mounted on top of the receptor cell of a verticle diffusion cell assembly in which a small magnetic bar was inserted and filled with an isotonic buffer. A rubber o-ring was placed on top of the skin followed by the placement of the donor cell. The two cells were clamped together and transferred to a water-bath (32° C.) which had several magnetic stirrers placed underneath to stir the contents of the diffusion cells. Samples from the cells were withdrawn periodically by gravity by inputing fresh isotonic buffer into the cells inlets. The first five drops were discarded and the following four drops were collected for analysis. These nine drops of sample solution were approximately equivalent to about 0.20 ml.
The samples were analyzed for the concentration of indomethacin using either a Spectroflow 783 programmable absorbance detector or a Perkin-Elmer ISS-100 HPLC apparatus with a Perkin-Elmer LC9 UV spectrophotometric detector and a Perkin-Elmer ISS-100 automatic sampler with the detection wavelength set at 260 nm. A reverse phase column, RP-8 Spheri-5, 4.6×100 mm and a guard tube OD-GU, purchased from Brownlee Labs, were used in conjunction with the HPLC system. The flow rate was 1.0 ml/min and the solvent system was a mixture of acetonitrile (50%) and a 0.01M phosphate buffer (pH 3.0) (50%).
The concentration in each sample was interpreted from a standard curve which was obtained by plotting the peak areas obtained from HPL chromatograms versus four different standard solutions of indomethacin. The standard curves were linear over a range of concentrations from 2.5 to 10 ug/ml. The receptor cell volume was calibrated by weighing the amount of water in the cell. The first sample needs no concentration correction. However, the concentration in the subsequent samples can be corrected by the following equation [formula] where xi is a member of microgram of indomethacin in the i^th sample. Also, the volume withdrawn for each sampling is about 0.20 ml. Yi is the concentration correction for i-1 sample.
The foregoing results were obtained by using 5% of the transdermal penetration enhancer in the ointment. […] Thus, Table III primarily reflects the transdermal penetration data of […] from ointments of 94% petrolatum and 5% enhancer. In Run No. 14, Azone was selected as the standard for comparison since it is claimed to be an excellent enhancer although it is too toxic. […]

[2] = intraperitoneal; cited from earlier work
[3] = in vitro transdermal penetration of indomethacin from petrolatum ointment through shed snake skin, vertical diffusion cell; type: in vitro ADME, Elaphe obsoleta (black rat snake); settings: * 10% enhancer in ointment, slope relative to Azone = 100%
[4] = system: Swiss white mice; test: Chronic Toxicity Study, subcutaneous daily for 14 days; type: in vivo; settings: 1000 mg/Kg daily for 14 days
Method: The compound identified in Example 25 and represented as Run No. 3 in Table III, was also evaluated for chronic toxicity. Six Swiss white mice were injected subcutaneously at a dose of 1000 mg/Kg daily for 14 days. A sample dispersion of 400 mg/4.0 ml was prepared by dispersing the soft enhancer in a powder form in a 2% Tween 80 saline solution. The homogeneous dispersion was obtained by vortexing the material in a conical flask in which a plastic ball was placed. Sample dispersion was prepared alternative day in order to avoid serious contamination. Prior to injection the dispersion was shaken and withdrawn into a sterile graduated 1 cc TB syring (readable to 0.05 ml). Sterile hypodermic needles (25.4 mm) were required for injecting the dispersion. The control mice were injected an equivalent volume of the 2% Tween 80 suspension in saline. The suspension was prepared on an alternative day to avoid serious contamination. […] Two mice injected with the sample and one from the control were sacrificed and dissected for examination. For the control mouse, there was no obvious damage to the tissue and the internal organs. […] The mice were maintained for a period of 39 days during which time one mouse was sacrificed to check for the presence of the yellowish material.

[5] = system: Swiss white mice; settings: mouse, in vivo, sc, 1000 mg/kg

1-Methyl-4-imidazolin-2-one-3-propylenedodecanoate [Run No. 5]
penetration enhancement of indomethacin versus Azone (FIG. 1) ([1]; within the first 24 hours): well above that of the standard Azone

CCCCCCCCCCCCN1CCCCCC1=O [Azone, 1-Dodecylazacycloheptane-2-One, reference compound]
LD50 [2]: approximately 232 mg/kg
Relative Penetration [1]: 100%

CCCCCCCCCCCCCC(=O)OC(C)n1ccn(CC)c1=O (stereo not drawn) [Run No. 7, 1-ethyl-4-imidazolin-2-one-3-α-ethyltetradecanoate]
Relative Penetration [1]: 50%

CCCCCCCCCCOC(=O)OCn1ccn(C)c1=O [Run No. 9]
Relative Penetration [1]: 15%

CCCCCCCCCCCCCCOC(=O)OCn1ccn(C)c1=O [Run No. 10]
Relative Penetration [1]: 10%

CCCCCCCCCCCC(=O)OCn1ccn(C)c1=O [Run No. 12, 1-Methyl-4-imidazolin-2-one-3-methylenedodecanoate]
Relative Penetration [1]: 10%
Relative Penetration [3]: 20%

CCCCCCCCCCCC(=O)OC(C)Cn1ccn(C)c1=O (centres unmarked) [compound 1]
Relative Penetration [1]: 120-200%

CCCCCCCCCCCCCC(=O)OC(C)Cn1ccn(C)c1=O (centres unmarked) [compound 2]
Relative Penetration [1]: 70%

CCCCCCCCCCCCCC(=O)OC(C)n1ccn(C)c1=O (centres unmarked) [compound 3]
Relative Penetration [1]: 80-100%
damage to internal organs (dissection) [4]: no obvious damage to the internal organs was seen
injection site finding (dissection) [4]: a substantial amount of yellowish material was found on the injection site
yellowish material at injection site at follow-up ([4]; after 39 days): The yellowish material disappeared after 39 days
Relative Penetration [3]: 50%
damage to internal organs and tissue at the injection site (dissection) [5]: no obvious damage to the internal organs and tissue at the injection site

CCCCCCCCCCCC(=O)OC(C)n1ccn(C)c1=O (centres unmarked) [compound 4]
Relative Penetration [1]: 60%
Relative Penetration [3]: 40%

CCCCCCCCCCCC(=O)OCCCn1ccn(C)c1=O [compound 5]
Relative Penetration [1]: 100%

CCCCCCCCCCCC(=O)OCCn1ccn(C)c1=O [compound 6]
Relative Penetration [1]: 60%

CCCCCCCCCCCCOC(=O)OCn1ccn(C)c1=O [compound 8]
Relative Penetration [1]: 50%

CCCCCCCCCC(=O)OCn1ccn(C)c1=O [compound 11]
Relative Penetration [1]: 10%

CCCCCCCCCC(=O)OC(C)Cn1ccn(C)c1=O (centres unmarked) [compound 13]
Relative Penetration [1]: 50%
